Legend:
[1] = Highest frequency of moderate liver toxicity observed during clinical trials, expressed as a percentage. [column '% BIOL' in source]; conditions: human
[2] = Highest frequency of acute liver toxicity observed during clinical trials, expressed as a percentage. [column '% AIGUE' in source]; conditions: human
[3] = human, serum
[4] = human, serum; remark: listed apart in the source
[5] = human
[6] = human; remark: listed apart in the source
[7] = human; remark: listed apart in the source
[8] = human, serum, 4383 h
[9] = human; remark: listed apart in the source
[10] = human; remark: listed apart in the source
[11] = human; remark: listed apart in the source
[12] = human; remark: listed apart in the source
[13] = human; remark: listed apart in the source
[14] = human; remark: listed apart in the source
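Wherever Hepatotoxicity (association with vascular disease) is given: count of indexed literature references reporting vascular liver injury in humans, e.g. peliosis hepatitis, hepatic veno-occlusive disease or Budd-Chiari syndrome.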
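Wherever Hepatotoxicity (benign tumour) is given: value is a count of indexed literature references citing a benign tumour confirmed by histopathology.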
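Wherever Hepatotoxicity (choleostasis) is given: human cholestatic liver injury, shown by histopathology or by peak ALT or AST elevation over alkaline phosphatase ratio below 2, value counts indexed literature reports.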
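Wherever Hepatotoxicity (chronic liver disease) is given: chronic liver injury confirmed by histopathology or persistently raised serum aminotransferase activity beyond 6 months, value given as the count of indexed literature references.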
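Wherever Hepatotoxicity (cirrhosis) is given: value is a count of indexed literature references reporting cirrhosis confirmed by histopathology.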
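Wherever Hepatotoxicity (cytolytic) is given: human cytolytic liver injury, shown by histopathology or by a ratio above 5 of peak ALT or AST elevation to alkaline phosphatase elevation, value counts indexed references.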
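Wherever Hepatotoxicity (granulomatous hepatitis) is given: value is a count of indexed literature references reporting granulomatous liver disease confirmed by histopathology.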
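Wherever Hepatotoxicity (malignant tumour) is given: malignant tumour confirmed by histopathology, value gives the count of indexed literature references reporting it.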
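Wherever Hepatotoxicity (severe hepatitis) is given: human clinical data: severe hepatitis, meaning potentially life-threatening liver failure or clinically observed cases, the value counts how many indexed literature references report it.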
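Wherever Hepatotoxicity (steatosis) is given: steatosis confirmed by histopathology, value is the count of indexed references.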

Structure (SMILES) | Hepatotoxicity (moderate) ([1]; Liver) | Hepatotoxicity (acute) ([2]; Liver) | Hepatotoxicity (moderate) [3] | Hepatotoxicity (acute) [4] | Hepatotoxicity (cytolytic) ([5]; Liver) | Hepatotoxicity (choleostasis) ([6]; Liver) | Hepatotoxicity (severe hepatitis) ([7]; Liver) | Hepatotoxicity (chronic liver disease) [8] | Hepatotoxicity (cirrhosis) [9] | Hepatotoxicity (granulomatous hepatitis) ([10]; Liver) | Hepatotoxicity (association with vascular disease) [11] | Hepatotoxicity (steatosis) [12] | Hepatotoxicity (malignant tumour) [13] | Hepatotoxicity (benign tumour) [14] | Hepatotoxicity (moderate) [1] | Hepatotoxicity (acute) [2] | Hepatotoxicity (cytolytic) [5] | Hepatotoxicity (choleostasis) [6] | Hepatotoxicity (severe hepatitis) [7] | Hepatotoxicity (granulomatous hepatitis) [10]
Clc1cccc(Cl)c1N=C1NCCN1 [CLONIDINE] | 12.5% | 0% | 1 | 0 | 0 | 0 | 0 | 0 | 0 | 0 | 0 | 0 | 0 | 0 | – | – | – | – | – | –
CN(C)CCC=C1c2ccccc2C=Cc2ccccc21 [CYCLOBENZAPRINE] | 0% | 0% | 1 | 1 | 0 | 0 | 0 | 0 | 0 | 0 | 0 | 0 | 0 | 0 | – | – | – | – | – | –
NS(=O)(=O)c1cc2c(cc1Cl)NC(CC1CCCC1)NS2(=O)=O (stereo not given) [CYCLOPENTHIAZIDE] | – | – | 1 | 1 | – | – | – | 0 | 0 | – | 0 | 0 | 0 | 0 | 0% | 0% | 0 | 0 | 0 | 0
CCC1=C(C[C@H]2NCCc3cc(OC)c(OC)cc32)C[C@H]2c3cc(OC)c(OC)cc3CCN2C1 [DEHYDROEMETINE] | – | – | 1 | 0 | – | – | – | 0 | 0 | – | 0 | 0 | 0 | 0 | 0% | 0% | 0 | 0 | 0 | 0
CC(C)Nc1cccnc1N1CCN(C(=O)c2cc3cc(NS(C)(=O)=O)ccc3[nH]2)CC1 [DELAVIRDINE] | – | – | 2 | 0 | – | – | – | 0 | 0 | – | 0 | 0 | 0 | 0 | 7.1% | 0% | 0 | 0 | 0 | 0
Nc1ncc2ncn(COCCO)c2n1 [DESCICLOVIR] | – | – | 1 | 0 | – | – | – | 0 | 0 | – | 0 | 0 | 0 | 0 | 15.4% | 0% | 0 | 0 | 0 | 0
CCOC(OCC)C(=O)OCC(=O)[C@]1(O)Cc2c(O)c3c(c(O)c2[C@@H](O[C@H]2C[C@H](N)[C@H](O)[C@H](C)O2)C1)C(=O)c1c(OC)cccc1C3=O [DETORUBICIN] | – | – | 2 | 0 | – | – | – | 0 | 0 | – | 0 | 0 | 0 | 0 | 9.4% | 0% | 0 | 0 | 0 | 0
N[C@H](Cc1cc(I)c(Oc2cc(I)c(O)c(I)c2)c(I)c1)C(=O)O [DEXTROTHYROXINE] | – | – | 1 | 0 | – | – | – | 0 | 0 | – | 0 | 0 | 0 | 0 | 40.2% | 0% | 0 | 0 | 0 | 0
CC(=O)Nc1c(I)c(NC(C)=O)c(I)c(C(=O)O)c1I [DIATRIZOIC ACID] | – | – | 1 | 0 | – | – | – | 0 | 0 | – | 0 | 0 | 0 | 0 | 0% | 0% | 0 | 0 | 0 | 0
CCOC(=O)NC1=C(N2CC2)C(=O)C(NC(=O)OCC)=C(N2CC2)C1=O [DIAZIQUONE] | – | – | 5 | 0 | – | – | – | 0 | 0 | – | 0 | 0 | 0 | 0 | 50% | 0% | 0 | 0 | 0 | 0
Oc1ccc(Cl)cc1Cc1cc(Cl)ccc1O [DICHLOROPHEN] | – | – | 0 | 2 | – | – | – | 0 | 0 | – | 0 | 0 | 0 | 0 | 0% | 0% | 2 | 1 | 0 | 0
CCN(CC)C(=O)N1CCN(C)CC1 [DIETHYLCARBAMAZINE] | – | – | 1 | 0 | – | – | – | 0 | 0 | – | 0 | 0 | 0 | 0 | 0% | 0% | 0 | 0 | 0 | 0
C[C@H]1O[C@@H](O[C@H]2[C@@H](O)C[C@H](O[C@H]3[C@@H](O)C[C@H](O[C@H]4CC[C@@]5(C)[C@H](CC[C@@H]6[C@@H]5C[C@@H](O)[C@]5(C)[C@@H](C7=CC(=O)OC7)CC[C@]65O)C4)O[C@@H]3C)O[C@@H]2C)C[C@H](O)[C@@H]1O [DIGOXIN] | – | – | 1 | 0 | – | – | – | 0 | 0 | – | 0 | 0 | 0 | 0 | 8.3% | 0% | 0 | 0 | 0 | 0
CN(C)CCCN1c2ccccc2C(C)(C)c2ccccc21 [DIMETACRINE] | – | – | 1 | 0 | – | – | – | 0 | 0 | – | 0 | 0 | 0 | 0 | 0% | 0% | 0 | 0 | 0 | 0
CN(C)CCOC(c1ccccc1)c1ccccc1 [DIPHENHYDRAMINE] | 1.4% | 0% | 1 | 0 | 0 | 0 | 0 | 0 | 0 | 0 | 0 | 0 | 0 | 0 | – | – | – | – | – | –
